Measurements from patent publication US8664234B2, “Dihydrobenzoquinazolinone M1 receptor positive allosteric modulators” (Merck Sharp & Dohme Corp., priority 2010, dated 2014).

The compounds below were run against T1, acetylcholine muscarinic M1 receptor (CHOnfat/hM1 cells) (Homo sapiens, UniProt P11229) (assay: FLIPR intracellular calcium assay for M1 positive allosteric modulator activity (acetylcholine EC20, 3 nM)). Settings: 4 min preincubation, then EC20 acetylcholine (3 nM final), FLIPR Ca2+ readout, read-out: IP Value (inflection point).
T1 construct: expressed in transfected cells; host or cells: CHOnfat cells (CHO; also called CHOK1/hM1)
T1 sequence (P11229 1-460): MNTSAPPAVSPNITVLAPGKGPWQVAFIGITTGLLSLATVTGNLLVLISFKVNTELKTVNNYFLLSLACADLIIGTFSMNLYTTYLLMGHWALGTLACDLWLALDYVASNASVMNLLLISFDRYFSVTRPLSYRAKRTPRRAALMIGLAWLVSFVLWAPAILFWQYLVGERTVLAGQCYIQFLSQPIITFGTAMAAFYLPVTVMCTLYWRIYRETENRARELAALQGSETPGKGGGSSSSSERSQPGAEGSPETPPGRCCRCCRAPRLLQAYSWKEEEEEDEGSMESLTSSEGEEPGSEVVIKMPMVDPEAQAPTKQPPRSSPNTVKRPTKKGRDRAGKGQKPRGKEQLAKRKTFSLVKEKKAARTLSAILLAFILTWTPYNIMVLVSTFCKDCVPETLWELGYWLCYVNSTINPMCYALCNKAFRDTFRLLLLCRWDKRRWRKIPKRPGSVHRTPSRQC
Format: cell-based
Method: The assay studies the effect of one or several concentrations of test compounds on basal or acetylcholine-stimulated. Ca^2+ levels using FLJPR.
Compounds are prepared and subjected to a preincubation period of 4 min. Thereafter, a single EC20 concentration of acetylcholine is added to each well (3 nM final). The intracellular Ca^2+ level of each sample is measured and compared to an acetylcholine control to determine any modulatory activity.
Cells: CHOnfat/hM1, hM2, hM3 or hM4 cells are plated 24 hr before the assay at a density of 18,000 cells/well (100 μL) in a 384 well plate. CHOnfat/hM1 and CHOnfat/hM3 Growth Medium: 90% DMEM (Hi Glucose); 10% HI FBS; 2 mM L-glutamine; 0.1 mM NEAA; Pen-Strep; and 1 mg/ml Geneticin, are added. For M2Gqi5CHOnfat and M4Gqi5CHOnfat cells, an additional 600 ug/ml hygromycin is added.
Equipment: 384 well plate, 120 μL addition plate; 96-well Whatman 2 ml Uniplate Incubator, 37° C., 5% CO2; Skatron EMBLA-384 Plate Washer; Multimek Pipetting System; Genesis Freedom 200 System; Mosquito System; Temo Nanoliter Pipetting System; and FLIPR^384 Fluorometric Imaging Plate Reader System are used.
Buffers. Assay Buffer: Hanks Balanced Salt Solution, with 20 mM Hepes, 2.5 mM Probenecid (Sigma P-8761) first dissolved in 1 N NaOH, 1% Bovine Serum Albumin (Sigma A-9647). Dye Loading Buffer: Assay Buffer plus 1% Fetal Bovine Serum and Fluo-4AM/Pluronic Acid Mixture. 2 mM Fluo-4AM ester stock in DMSO (Molecular Probes F-14202) Concentration of 2 μM in buffer for a final concentration of 1 μM in Assay. 20% Pluronic Acid Solution stock, with concentration of 0.04% in Buffer, 0.02% in Assay.
65 μL of 2 mM Fluo-4AM are mixed with 130 μL of 20% Pluronic Acid. The resulting solution and 650 μL FBS is added to the assay buffer for a total volume of 65 mL. Positive Controls: 4-Br-A23187: 10 mM in DMSO; final concentration 10 μM. Acetylcholine: 10 mM in water, working stock at both 20 μM and 30 μM in assay buffer, final concentration of 10 μM. This is used to check the maximum stimulation of the CHOK1/hM1 cells, 20 μM (2×) acetylcholine is added in the preincubation part of the assay, and the 30 μM (3×) stock is added in the second part. (EC20) Acetylcholine: 10 mM in water, working stock of 9 nM (3×), and final concentration in assay is 3 nM. This is used after the preincubation with test compounds. Addition of the EC20 Acetylcholine to each well with a test compound will ascertain any modulator activity. 24 wells contain 3 nM Acetylcholine alone as a control.
Determining Activity of Putative Compounds:
Screening Plate Compounds are titrated in 96-well plates (columns 2-11), 100% DMSO, started at a concentration of 15 mM (150× stock concentration), and 3-fold serial dilutions using Genesis Freedom200 System. Four 96-well plates are combined into a 384-well plate using Mosquito Nanoliter Pipetting System by transferring 1 μl of serial diluted compounds to each well, and 1 mM acetylcholine (100× stock concentration) were added as a control. Using Temo, 49 μl assay buffer is added to each well of the 384-well plate right before assay.
In a 96-well Whatman 2 ml Uniplate, 9 nM Acetylcholine (3×) is pipetted into wells corresponding to the screening compounds, and into control wells. The 30 μM acetylcholine control (3×) is added into control wells, and the 3× agonist plate is transferred into a 384 well plate.
Cells are washed three times with 100 μL of buffer, leaving 30 μL of buffer in each well. Using Multimek, 30 μL of Dye Loading Buffer is added into each well and incubated at 37° C., 5% CO2 for up to one hr.
After 60 min, the cells are washed three times with 100 μL of buffer, leaving 30 μL of buffer in each well. The cell plate, screening plate, and agonist addition plates are placed on the platform in the FLIPR and the door closed. A signal test to check background fluorescence and basal fluorescence signal is performed. Laser intensity is adjusted if necessary. […]

| Structure (SMILES) | EC50 |
| --- | --- |
| Cn1ccc2c(Cc3cc4c(c5ccccc35)NCN([C@H]3CCOC[C@@H]3O)C4=O)cccc21 [Example 1, 1,5-Anhydro-2,3-dideoxy-3-{6-[(1-methyl-1H-indol-4-yl)methyl]-4-oxo-1,4-dihydrobenzo[h]quinazolin-3 (2H)-yl}-L-threo-pentitol] | 15 nM |
| CN1CN([C@H]2CCOC[C@@H]2O)C(=O)c2cc(Cc3ccc(Cl)nc3)c3ccccc3c21 [Example 2, 1,5-Anhydro-3-{6-[(6-chloropyridin-3-yl)methyl]-1-methyl-4-oxo-1,4-dihydrobenzo[h]quinazolin-3(2H)-yl}-2,3-dideoxy-L-threo-pentitol] | 6.3 nM |
| CSc1ccc(Cc2cc3c(c4ccccc24)NCN([C@H]2CCOC[C@@H]2O)C3=O)cn1 [Example 3, 1,5-Anhydro-2,3-dideoxy-3-[6-{[6-(methylsulfanyl)pyridin-3-yl]methyl}-4-oxo-1,4-dihydrobenzo[h]quinazolin-3(2H)-yl]-L-threo-pentitol] | 11.5 nM |
| Cc1ccc(Cc2cc3c(c4ccccc24)N(C)CN([C@H]2CCCC[C@@H]2O)C3=O)cn1 [Example 4, 3-[(1S,2S)-2-Hydroxycyclohexyl]-1-methyl-6-[(6-methylpyridin-3-yl)methyl]-2,3-dihydrobenzo[h]quinazolin-4(1H)-one] | 4 nM |
| CCCN1CN([C@H]2CCCC[C@@H]2O)C(=O)c2cc(Cc3ccc(C)nc3)c3ccccc3c21 [Example 5, 3-[(1S,2S)-2-Hydroxycyclohexyl]-6-[(6-methylpyridin-3-yl)methyl]-1-propyl-2,3-dihydrobenzo[h]quinazolin-4(1H)-one] | 1170 nM |
| CN1CN([C@H]2CCOC[C@@H]2O)C(=O)c2cc(Cc3ccnc(CF)c3)c3ccccc3c21 [Example 6, 1,5-Anhydro-2,3-dideoxy-3-[6-{[2-(fluoromethyl)pyridin-4-yl]methyl}-1-methyl-4-oxo-1,4-dihydrobenzo[h]quinazolin-3 (2H)-yl]-L-threo-pentitol] | 2.7 nM |
| CN1CN([C@H]2CCOC[C@@H]2O)C(=O)c2cc(Cc3ccnc(C(F)F)c3)c3ccccc3c21 [Example 7, 1,5-anhydro-2,3-dideoxy-3-[6-{[2-(difluoromethyl)pyridin-4-yl]methyl}-1-methyl-4-oxo-1,4-dihydrobenzo[h]quinazolin-3(2H)-yl]-L-threo-pentitol] | 2.6 nM |
